Data reported in patent publication US20150005281A1, “PYRIMIDINE-2,4-DIAMINE DERIVATIVES AS KINASE INHIBITORS” (Cellzome Limited, priority 2011, published 2015).
Structures can show the parent of a compound that is named as a salt.

Experiments:
Assay type in all cases: binding
JAK1 = molecular target: T1, JAK1 (Homo sapiens, UniProt P23458); assay: Kinobeads assay with immunodetection, JAK1; conditions: for IC50: Kinobeads assay, mixed Molt4/Ramos lysate, read-out: Inhibition values (IC50) JAK1
T1 construct: endogenous in cells; host or cells: Molt4 (ATCC CRL-1582) and Ramos (ATCC CRL-1596) cells; mixed lysate 1:2
T1 sequence (P23458 whole entry): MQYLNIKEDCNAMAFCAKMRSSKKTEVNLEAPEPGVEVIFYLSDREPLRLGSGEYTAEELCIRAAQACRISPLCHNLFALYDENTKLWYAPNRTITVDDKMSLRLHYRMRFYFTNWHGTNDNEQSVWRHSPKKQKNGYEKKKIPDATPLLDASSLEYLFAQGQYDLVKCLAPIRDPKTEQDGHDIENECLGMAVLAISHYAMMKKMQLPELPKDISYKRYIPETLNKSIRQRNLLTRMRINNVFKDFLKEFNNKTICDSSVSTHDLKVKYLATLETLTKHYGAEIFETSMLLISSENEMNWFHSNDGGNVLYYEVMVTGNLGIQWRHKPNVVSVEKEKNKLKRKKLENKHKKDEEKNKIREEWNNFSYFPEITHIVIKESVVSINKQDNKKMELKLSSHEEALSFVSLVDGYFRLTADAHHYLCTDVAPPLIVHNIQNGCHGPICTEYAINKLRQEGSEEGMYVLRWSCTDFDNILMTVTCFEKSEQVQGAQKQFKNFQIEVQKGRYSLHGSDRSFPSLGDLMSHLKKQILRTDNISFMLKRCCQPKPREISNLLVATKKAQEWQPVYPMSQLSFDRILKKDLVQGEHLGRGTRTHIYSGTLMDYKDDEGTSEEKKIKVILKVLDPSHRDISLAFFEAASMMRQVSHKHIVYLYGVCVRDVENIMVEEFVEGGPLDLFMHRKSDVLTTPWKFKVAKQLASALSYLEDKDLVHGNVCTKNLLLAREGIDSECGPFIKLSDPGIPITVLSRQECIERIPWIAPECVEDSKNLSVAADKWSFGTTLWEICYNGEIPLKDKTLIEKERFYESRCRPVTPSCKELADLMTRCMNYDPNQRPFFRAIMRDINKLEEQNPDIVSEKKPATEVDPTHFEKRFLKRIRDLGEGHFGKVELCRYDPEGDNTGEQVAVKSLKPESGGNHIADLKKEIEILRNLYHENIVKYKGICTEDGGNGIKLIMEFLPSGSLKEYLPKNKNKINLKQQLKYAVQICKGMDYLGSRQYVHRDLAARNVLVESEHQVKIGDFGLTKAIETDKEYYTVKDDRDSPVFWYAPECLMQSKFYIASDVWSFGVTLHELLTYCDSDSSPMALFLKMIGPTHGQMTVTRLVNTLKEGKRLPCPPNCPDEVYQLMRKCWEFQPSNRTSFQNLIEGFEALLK
Summary of the method: (§1)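 Mixed Molt4/Ramos lysate (1:2, 10 mg/mL protein) incubated 3 h in the cold with compound (1:3 series from 5 mM DMSO stock) and immobilized aminopyrido-pyrimidine Kinobeads. Bead-bound JAK1, JAK2, JAK3 and TYK2 eluted and quantified by antibody dot blot (Odyssey), IC50 from dose-response curves.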

JAK2 = molecular target: T2, JAK2 (Homo sapiens, UniProt O60674); assay: Kinobeads assay with immunodetection, JAK2; conditions: mixed Molt4/Ramos lysate, read-out: Inhibition values (IC50) JAK2
T2 construct: endogenous in cells; host or cells: Molt4 (ATCC CRL-1582) and Ramos (ATCC CRL-1596) cells; mixed lysate 1:2
T2 sequence (O60674 whole entry): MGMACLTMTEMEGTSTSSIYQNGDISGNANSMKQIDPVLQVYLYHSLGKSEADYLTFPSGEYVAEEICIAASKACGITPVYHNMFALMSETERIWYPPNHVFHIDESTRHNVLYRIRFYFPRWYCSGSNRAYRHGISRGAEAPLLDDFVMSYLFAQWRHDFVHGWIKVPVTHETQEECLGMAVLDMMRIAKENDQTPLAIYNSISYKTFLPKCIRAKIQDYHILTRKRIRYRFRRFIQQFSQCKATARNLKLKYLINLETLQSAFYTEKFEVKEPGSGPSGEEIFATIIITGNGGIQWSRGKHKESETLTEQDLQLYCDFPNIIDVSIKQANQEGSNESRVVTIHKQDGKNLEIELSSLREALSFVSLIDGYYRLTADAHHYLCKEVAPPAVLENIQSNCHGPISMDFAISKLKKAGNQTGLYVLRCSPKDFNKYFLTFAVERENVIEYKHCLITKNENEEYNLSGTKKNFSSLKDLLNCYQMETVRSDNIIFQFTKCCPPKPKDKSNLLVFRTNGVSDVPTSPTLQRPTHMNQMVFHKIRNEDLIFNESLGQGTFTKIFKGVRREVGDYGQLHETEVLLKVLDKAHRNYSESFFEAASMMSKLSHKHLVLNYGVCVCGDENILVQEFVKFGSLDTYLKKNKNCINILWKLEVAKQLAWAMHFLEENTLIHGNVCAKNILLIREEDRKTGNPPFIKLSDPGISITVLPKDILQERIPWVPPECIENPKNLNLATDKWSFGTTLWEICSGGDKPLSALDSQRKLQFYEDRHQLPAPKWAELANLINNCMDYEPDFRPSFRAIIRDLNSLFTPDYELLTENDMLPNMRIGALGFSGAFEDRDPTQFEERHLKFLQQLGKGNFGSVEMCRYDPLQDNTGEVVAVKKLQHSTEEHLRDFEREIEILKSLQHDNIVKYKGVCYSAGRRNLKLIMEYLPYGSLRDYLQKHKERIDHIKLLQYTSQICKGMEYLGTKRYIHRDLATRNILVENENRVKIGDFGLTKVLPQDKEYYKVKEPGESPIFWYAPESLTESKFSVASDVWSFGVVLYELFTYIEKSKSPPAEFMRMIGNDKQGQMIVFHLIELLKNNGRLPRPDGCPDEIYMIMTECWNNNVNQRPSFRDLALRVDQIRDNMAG
Summary of the method: as §1

JAK3 = molecular target: T3, JAK3 (Homo sapiens, UniProt P52333); assay: Kinobeads assay with immunodetection, JAK3; conditions: for IC50: Kinobeads assay, mixed Molt4/Ramos lysate, read-out: Inhibition values (IC50) JAK3
T3 construct: endogenous in cells; host or cells: Molt4 (ATCC CRL-1582) and Ramos (ATCC CRL-1596) cells; mixed lysate 1:2
T3 sequence (P52333 1-1124): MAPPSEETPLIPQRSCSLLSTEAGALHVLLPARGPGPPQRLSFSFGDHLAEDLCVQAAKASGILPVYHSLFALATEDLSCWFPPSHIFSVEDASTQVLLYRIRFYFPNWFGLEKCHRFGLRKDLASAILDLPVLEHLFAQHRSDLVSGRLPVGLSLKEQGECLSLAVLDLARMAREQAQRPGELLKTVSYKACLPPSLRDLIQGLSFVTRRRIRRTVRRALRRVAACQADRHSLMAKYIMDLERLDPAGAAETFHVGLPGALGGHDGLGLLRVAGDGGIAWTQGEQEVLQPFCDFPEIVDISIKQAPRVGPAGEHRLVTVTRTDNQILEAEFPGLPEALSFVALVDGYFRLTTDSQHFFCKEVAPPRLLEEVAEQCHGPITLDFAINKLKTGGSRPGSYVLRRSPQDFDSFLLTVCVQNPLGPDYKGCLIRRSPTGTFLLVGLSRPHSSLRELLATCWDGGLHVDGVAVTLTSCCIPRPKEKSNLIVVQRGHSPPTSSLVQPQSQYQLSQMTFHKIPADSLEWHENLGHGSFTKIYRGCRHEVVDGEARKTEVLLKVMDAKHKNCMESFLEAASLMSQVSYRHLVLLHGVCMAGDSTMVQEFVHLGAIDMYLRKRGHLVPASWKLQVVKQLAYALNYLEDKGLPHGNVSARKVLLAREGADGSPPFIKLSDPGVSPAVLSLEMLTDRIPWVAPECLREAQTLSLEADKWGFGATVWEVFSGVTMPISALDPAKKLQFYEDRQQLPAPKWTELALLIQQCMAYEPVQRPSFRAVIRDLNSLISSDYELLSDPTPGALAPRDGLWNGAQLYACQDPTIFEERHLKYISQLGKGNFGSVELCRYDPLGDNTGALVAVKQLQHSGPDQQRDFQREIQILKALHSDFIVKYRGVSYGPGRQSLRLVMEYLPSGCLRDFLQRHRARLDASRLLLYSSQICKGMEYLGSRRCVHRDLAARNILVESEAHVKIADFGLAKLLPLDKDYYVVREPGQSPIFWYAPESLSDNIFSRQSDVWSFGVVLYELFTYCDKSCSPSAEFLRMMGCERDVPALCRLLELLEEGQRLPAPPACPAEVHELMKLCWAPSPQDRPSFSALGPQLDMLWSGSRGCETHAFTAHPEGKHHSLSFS
Summary of the method: as §1

TYK2 = molecular target: T4, TYK2 (Homo sapiens, UniProt P29597); assay: Kinobeads assay with immunodetection, TYK2; conditions: for IC50: Kinobeads assay, mixed Molt4/Ramos lysate, read-out: Inhibition values (IC50) Tyk2
T4 construct: endogenous in cells; host or cells: Molt4 (ATCC CRL-1582) and Ramos (ATCC CRL-1596) cells; mixed lysate 1:2
T4 sequence (P29597 whole entry): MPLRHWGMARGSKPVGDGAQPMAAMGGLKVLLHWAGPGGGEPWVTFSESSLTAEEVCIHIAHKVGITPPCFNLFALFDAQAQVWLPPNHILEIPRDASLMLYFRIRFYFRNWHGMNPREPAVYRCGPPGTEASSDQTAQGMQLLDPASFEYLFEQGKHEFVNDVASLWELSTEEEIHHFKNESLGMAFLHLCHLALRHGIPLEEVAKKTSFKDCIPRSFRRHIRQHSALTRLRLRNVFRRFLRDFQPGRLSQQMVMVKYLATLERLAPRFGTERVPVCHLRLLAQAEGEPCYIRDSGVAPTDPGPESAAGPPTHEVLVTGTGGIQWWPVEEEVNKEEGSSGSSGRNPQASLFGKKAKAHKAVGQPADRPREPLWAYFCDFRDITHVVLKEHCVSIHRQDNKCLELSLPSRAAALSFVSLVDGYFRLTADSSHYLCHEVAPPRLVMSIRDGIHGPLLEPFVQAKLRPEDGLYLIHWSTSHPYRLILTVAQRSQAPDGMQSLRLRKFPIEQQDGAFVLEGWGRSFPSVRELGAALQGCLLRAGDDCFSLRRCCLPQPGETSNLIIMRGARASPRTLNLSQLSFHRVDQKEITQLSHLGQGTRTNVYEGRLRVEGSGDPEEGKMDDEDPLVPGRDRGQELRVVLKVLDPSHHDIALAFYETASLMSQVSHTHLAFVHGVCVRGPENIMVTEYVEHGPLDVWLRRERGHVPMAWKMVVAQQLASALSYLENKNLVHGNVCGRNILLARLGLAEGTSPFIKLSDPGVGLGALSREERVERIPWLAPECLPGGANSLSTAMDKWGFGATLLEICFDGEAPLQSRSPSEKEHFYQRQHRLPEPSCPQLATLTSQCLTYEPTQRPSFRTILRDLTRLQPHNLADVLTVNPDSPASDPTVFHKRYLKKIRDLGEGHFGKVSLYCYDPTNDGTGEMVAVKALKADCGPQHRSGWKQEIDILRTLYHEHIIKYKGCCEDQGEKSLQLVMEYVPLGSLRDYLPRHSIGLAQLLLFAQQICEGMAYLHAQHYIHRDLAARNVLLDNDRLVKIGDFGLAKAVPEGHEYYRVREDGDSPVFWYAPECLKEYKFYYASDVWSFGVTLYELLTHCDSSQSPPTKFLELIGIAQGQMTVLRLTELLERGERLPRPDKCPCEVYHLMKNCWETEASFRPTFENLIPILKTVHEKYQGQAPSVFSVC
Summary of the method: as §1

IC50 (JAK1)	IC50 (JAK2)	IC50 (JAK3)	IC50 (TYK2)	Selectivity ratio over JAK2, Tyk2 (TYK2)	Selectivity ratio over JAK2, JAK1 (JAK1)	Selectivity ratio over JAK2, JAK3 (JAK3)	SMILES
100 to 1000 nM	> 10000 nM	1000 to 10000 nM	100 to 1000 nM				C=CC(=O)N1CCC[C@H]1CNc1nc(Nc2cnn(CCO)c2)ncc1Cl [Example 11, (S)-1-(2-(((5-chloro-2-((1-(2-hydroxyethyl)-1H-pyrazol-4-yl)amino)pyrimidin-4-yl)amino)methyl)pyrrolidin-1-yl)prop-2-en-1-one]
100 to 1000 nM	1000 to 10000 nM	100 to 1000 nM	< 100 nM	Tyk2 = 8			CC(=O)N1CCCC[C@@H]1CNc1nc(Nc2cnn(C)c2)ncc1Cl [Example 39, (R)-1-(2-(((5-chloro-2-((1-methyl-1H-pyrazol-4-yl)amino)pyrimidin-4-yl)amino)methyl)piperidin-1-yl)ethanone]
< 100 nM	100 to 1000 nM	< 100 nM	< 100 nM	Tyk2 = 11			CS(=O)(=O)N1CCC[C@@H]1CNc1nc(Nc2cnn(CCO)c2)ncc1Cl [Example 6, (R)-2-(4-((5-chloro-4-(((1-(methylsulfonyl)pyrrolidin-2-yl)methyl)amino)pyrimidin-2-yl)amino)-1H-pyrazol-1-yl)ethanol]
100 to 1000 nM	> 10000 nM	1000 to 10000 nM	1000 to 10000 nM				CN(C)C(=O)Cn1cc(Nc2ncc(Cl)c(NC[C@H]3CCCN3)n2)cn1 [Example 64, (R)-2-(4-(5-chloro-4-(pyrrolidin-2-ylmethylamino)pyrimidin-2-ylamino)-1H-pyrazol-1-yl)-N,N-dimethylacetamide]
< 100 nM	1000 to 10000 nM	100 to 1000 nM	< 100 nM		JAK1 = 182		Cc1cnc(Nc2cnn(CC(F)F)c2)nc1NC[C@@H]1CCCN1CCS(C)(=O)=O [Example 123, (S)—N^2-(1-(2,2-difluoroethyl)-1H-pyrazol-4-yl)-5-methyl-N^4-((1-(2-(methylsulfonyl)ethyl)pyrrolidin-2-yl)methyl)pyrimidine-2,4-diamine]
100 to 1000 nM	100 to 1000 nM	< 100 nM	< 100 nM			Jak3 = 18	Cn1cc(Nc2ncc(Cl)c(NC[C@H]3CCCCN3S(C)(=O)=O)n2)cn1 [Example 43, (R)-5-chloro-N^2-(1-methyl-1H-pyrazol-4-yl)-N^4-((1-(methylsulfonyl)piperidin-2-yl)methyl)pyrimidine-2,4-diamine]
< 100 nM	100 to 1000 nM	100 to 1000 nM	< 100 nM	Tyk2 = 5			Cn1cc(Nc2ncc(Cl)c(NC[C@H]3CCCN3C(=O)NC3CC3)n2)cn1 [Example 89, (R)-2-(((5-chloro-2-((1-methyl-1H-pyrazol-4-yl)amino)pyrimidin-4-yl)amino)methyl)-N-cyclopropylpyrrolidine-1-carboxamide]
< 100 nM	100 to 1000 nM	< 100 nM	< 100 nM			JAK3 = 40	Cn1cc(Nc2ncc(Cl)c(NC[C@@H]3CCCN(C(=O)CC#N)C3)n2)cn1 [Example 135, (S)-3-(3-(((5-chloro-2-((1-methyl-1H-pyrazol-4-yl)amino)pyrimidin-4-yl)amino)methyl)piperidin-1-yl)-3-oxopropanenitrile]
< 100 nM	1000 to 10000 nM	100 to 1000 nM	< 100 nM		JAK1 = 101		Cc1cnc(Nc2cnn(CC(F)F)c2)nc1NC[C@@H]1CCCN1C(=O)CC#N [Example 124, (S)-3-(2-(((2-((1-(2,2-difluoroethyl)-1H-pyrazol-4-yl)amino)-5-methylpyrimidin-4-yl)amino)methyl)pyrrolidin-1-yl)-3-oxopropanenitrile]
< 100 nM	100 to 1000 nM	100 to 1000 nM	< 100 nM		JAK1 = 17		Cc1cnc(Nc2cnn(C)c2)nc1NC[C@@H]1C[C@H](F)CN1CCC#N [Example 101, 3-((2S,4S)-4-fluoro-2-(((5-methyl-2-((1-methyl-1H-pyrazol-4-yl)amino)pyrimidin-4-yl)amino)methyl)pyrrolidin-1-yl)propanenitrile]
100 to 1000 nM	1000 to 10000 nM	< 100 nM	100 to 1000 nM			JAK3 = 190	C=CS(=O)(=O)N1CC[C@@H](CNc2nc(Nc3cnn(C)c3)ncc2Cl)C1 [Example 31, (S)-5-chloro-N^2-(1-methyl-1H-pyrazol-4-yl)-N^4-((1-(vinylsulfonyl)pyrrolidin-3-yl)methyl)pyrimidine-2,4-diamine]
< 100 nM	100 to 1000 nM	< 100 nM	< 100 nM		JAK1 = 13		Cn1cc(Nc2ncc(Cl)c(NC[C@H]3CCCN3S(C)(=O)=O)n2)cn1 [Example 5, (R)-5-chloro-N^2-(1-methyl-1H-pyrazol-4-yl)-N^4-((1-(methylsulfonyl)pyrrolidin-2-yl)methyl)pyrimidine-2,4-diamine]
< 100 nM	1000 to 10000 nM	< 100 nM	100 to 1000 nM			JAK3 = 64	CS(=O)(=O)N1CCCC[C@H]1CNc1nc(Nc2cnn(CCO)c2)ncc1Cl [Example 37, (S)-2-(4-((5-chloro-4-(((1-(methylsulfonyl)piperidin-2-yl)methyl)amino)pyrimidin-2-yl)amino)-1H-pyrazol-1-yl)ethanol]
< 100 nM	100 to 1000 nM	< 100 nM	< 100 nM		JAK1 = 12		Cn1cc(Nc2ncc(Cl)c(NC[C@@H]3CCCN3S(C)(=O)=O)n2)cn1 [Example 12, (S)-5-chloro-N^2-(1-methyl-1H-pyrazol-4-yl)-N^4-((1-(methylsulfonyl)pyrrolidin-2-yl)methyl)pyrimidine-2,4-diamine]
1000 to 10000 nM	> 10000 nM	> 10000 nM	> 10000 nM				Cn1cc(Nc2ncc(F)c(NC[C@H]3CCCN3)n2)cn1 [Example 70, (R)-5-fluoro-N^2-(1-methyl-1H-pyrazol-4-yl)-N^4-(pyrrolidin-2-ylmethyl)pyrimidine-2,4-diamine Hydrochloride]
< 100 nM	100 to 1000 nM	< 100 nM	< 100 nM			JAK3 = 44	CN(C)C(=O)Cn1cc(Nc2ncc(Cl)c(NC[C@@H]3CCCN3S(C)(=O)=O)n2)cn1 [Example 69, (S)-2-(4-(5-chloro-4-((1-(methylsulfonyl)pyrrolidin-2-yl)methylamino)pyrimidin-2-ylamino)-1H-pyrazol-1-yl)-N,N-dimethylacetamide]
1000 to 10000 nM	> 10000 nM	1000 to 10000 nM	100 to 1000 nM				CN(C)C(=O)Cn1cc(Nc2ncc(Cl)c(NC[C@@H]3CCCN3)n2)cn1 [Example 66, (S)-2-(4-(5-chloro-4-(pyrrolidin-2-ylmethylamino)pyrimidin-2-ylamino)-1H-pyrazol-1-yl)-N,N-dimethylacetamide]
< 100 nM	< 100 nM	< 100 nM	< 100 nM	Tyk2 = 13			CN(C)C(=O)Cn1cc(Nc2ncc(Cl)c(NC[C@H]3CCCN3S(C)(=O)=O)n2)cn1 [Example 68, (R)-2-(4-(5-chloro-4-((1-(methylsulfonyl)pyrrolidin-2-yl)methylamino)pyrimidin-2-ylamino)-1H-pyrazol-1-yl)-N,N-dimethylacetamide]
100 to 1000 nM	1000 to 10000 nM	1000 to 10000 nM	< 100 nM	Tyk2 = 138			Cn1cc(Nc2nccc(NC[C@H]3CCCN3C(=O)CC#N)n2)cn1 [Example 95, (R)-3-(2-(((2-((1-methyl-1H-pyrazol-4-yl)amino)pyrimidin-4-yl)amino)methyl)pyrrolidin-1-yl)-3-oxopropanenitrile]
